Holding throughout (format): functional, cell-based
In assay [1] the test system is HeLa. Briefly: Antiproliferative activity against human HeLa cells assessed as reduction in cell growth.
Assay [2] concerns HeLa. Briefly: Modulation of autophagy in human HeLa cells expressing mRFP-EGFP-LC3B assessed as induction of EGFP-LC3B puncta formation at 3 uM measured after 24 hrs by fluorescence microscopic analysis.
The test system of assay [3] is HeLa. Briefly: Inhibition of autophagic flux in human HeLa cells expressing mRFP-EGFP-LC3B assessed as blockage of autophagosome-lysosome fusion by measuring accumulation of yellow puncta at 3 uM measured after 24 hrs by fluorescence microscopic analysis.
The subject of assay [4] is HeLa. The experiment in a line: Modulation of autophagy in human HeLa cells assessed as accumulation of p62 measured after 24 hrs by western blot analysis.
For assay [5], the system named is HeLa. Briefly: Modulation of autophagy in human HeLa cells assessed as autophagosome maturation by measuring conversion of LC3B-I to LC3B-II measured after 24 hrs by western blot analysis. For orientation: Immunoblotting shows a protein as a band on a membrane.
Assay [6] deals with HeLa. The experiment in a line: Induction of autophagy in human HeLa cells expressing mRFP-EGFP-LC3B assessed as accumulation of red and green fluorescence signals at 200 nM measured after 24 hrs by fluorescence microscopic analysis.
Assay [7] concerns HeLa. The experiment in a line: Modulation of autophagy in human HeLa cells expressing mRFP-EGFP-LC3B assessed as induction of EGFP-LC3B puncta formation at 0.3 uM measured after 24 hrs by fluorescence microscopic analysis.

One may read the pIC50 as the negative decadic logarithm of the IC50, by convention in mol/L.

Each structure is given as a SMILES string. pIC50: −log10 of the molar value. Active and inactive are the calls of the source. No cut-off for these calls is given here. Where only a bound is given, the exact number is not on record here.

Consider `CC[C@H]1O[C@@](O)([C@@H](C)[C@H](O)[C@H](C)[C@H]2OC(=O)/C(C)=C/C(C)=C/[C@@H](C)[C@@H](O)[C@@H](C)C[C@@](C)(O)[C@@H](O)/C=C/[C@@H]2OC)C[C@@H](OC(=O)/C=C/C(=O)O)[C@@H]1C`, for which the pIC50 in the assay on HeLa [1] was < 4.52. Also, in the assay on HeLa [2], the outcome was Active. The inhibition entry in the assay with HeLa [3] was “Active”. The Activity entry in the assay with HeLa [4] and with HeLa [5] was “Dose-dependent effect” throughout.
For the molecule `CCC(=O)N1CCN(c2ccc(-n3c(=O)ccc4cnc5ccc(-c6cnc7ccccc7c6)cc5c43)cc2C(F)(F)F)CC1`, the outcome in the assay on HeLa [6] was Active.
Regarding `CC[C@H]1O[C@@](O)([C@@H](C)[C@H](O)[C@H](C)[C@H]2OC(=O)/C(C)=C/C(C)=C/[C@@H](C)[C@H]3O[C@](C)(C[C@@H]3C)[C@@H](O)/C=C/[C@@H]2OC)C[C@@H](OC(=O)/C=C/C(=O)O)[C@@H]1C`, the negative logarithm of the IC50 (pIC50) in the assay on HeLa [1] is < 4.52. For the same molecule, the outcome in the assay on HeLa [2] was Active. Further, the inhibition result in the assay on HeLa [3] is “Active”. Also, the Activity result in the assay with HeLa [4] and in the assay on HeLa [5] was “Dose-dependent effect” in each case.
For the molecule `CC[C@H]1O[C@@](O)([C@@H](C)[C@H](O)[C@H](C)[C@H]2OC(=O)/C(C)=C/C(C)=C/[C@@H](C)[C@@H](O)[C@@H](C)C/C(C)=C/C=C/[C@@H]2OC)C[C@@H](OC(=O)/C=C/C(=O)O)[C@@H]1C`, the pIC50 in the assay on HeLa [1] is 4.93. The result in the assay with HeLa [2] and with HeLa [7] was Active. Further, the inhibition result with HeLa [3] was “Active”. In addition, the Activity result in the assay on HeLa [4] and in the assay with HeLa [5] was “Dose-dependent effect” throughout.
Consider `CO/C1=C\C(C)=C\[C@@H](C)[C@@H](O)[C@@H](C)C/C(C)=C/C=C/[C@H](OC)[C@@H]([C@@H](C)[C@@H](O)[C@H](C)[C@@]2(O)C[C@@H](O)[C@H](C)[C@@H](C(C)C)O2)OC1=O` [BAFILOMYCIN A1], for which the pIC50 with HeLa [1] was 4.89. Also, the outcome in the assay with HeLa [2] and in the assay on HeLa [7] was Active. The inhibition entry in the assay with HeLa [3] was “Active”. Also, the Activity result with HeLa [4] is “Dose-dependent effect”.
